Measurements reported in ChEMBL document CHEMBL1145498, “A systematic interaction map of validated kinase inhibitors with Ser/Thr kinases” (Proc Natl Acad Sci U S A, 2007).
Active and inactive are the calls of the source. The rule behind the calls is not given here.

Legend:
[1] = target: T1, Epidermal growth factor receptor (Homo sapiens, UniProt P00533); conditions: 10000 nM
[2] = Induction of differentiation in mouse D3 cells at 400 nM; type: functional
P19 = test: Induction of differentiation in mouse P19 cells at 1000 nM; type: functional
[3] = Inhibition of Cdk6/cyclin D1
PBMC [4] = test: Inhibition of LPS-stimulated TNFalpha release in human PBMC; type: functional, cell-based
[5] = target: Vascular endothelial growth factor receptor 2 (Homo sapiens, UniProt P35968)
[6] = target: Myosin light chain kinase, smooth muscle (Homo sapiens, UniProt Q15746); test: Binding affinity at MLCK
HeLa = test: Antiproliferative activity against human HeLa cells; type: functional, cell-based
[7] = target: Dual specificity protein kinase CLK4 (Mus musculus, UniProt O35493); test: Inhibition of mouse Clk4
T-cell = test: Effect of gamma irradiation-induced apoptosis in human CD8+ T cells; type: functional, cell-based; conditions: light or radiation study
[8] = target: Bcl2-associated agonist of cell death (Homo sapiens) (UniProt Q92934); test: Reduction of BAD phosphorylation in human MV4-11 cells at 1 uM by Western blot; type: functional, cell-based
Bcl2-associated agonist of cell death (Homo sapiens), sequence (Q92934 whole entry): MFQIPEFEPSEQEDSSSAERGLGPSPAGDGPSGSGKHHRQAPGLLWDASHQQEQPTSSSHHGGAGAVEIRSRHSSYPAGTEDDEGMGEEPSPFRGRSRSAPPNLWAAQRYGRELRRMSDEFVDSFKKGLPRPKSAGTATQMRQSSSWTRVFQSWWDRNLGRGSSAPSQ

[9] = Inhibition of Cdk4/cyclin D
CDK6/cyclin D3 = CDK6/cyclin D3 (Homo sapiens, UniProt Q00534); test: Inhibition of Cdk6/cyclin D3; type: protein-complex assay
[10] = target: Tyrosine-protein kinase BTK (Homo sapiens, UniProt Q06187); test: Inhibition of Btk
[11] = target: Tyrosine-protein kinase SYK (Homo sapiens, UniProt P43405)
[12] = Inhibition of Cdk9/cyclin T1
[13] = target: Dual specificity tyrosine-phosphorylation-regulated kinase 1A (Homo sapiens, UniProt Q13627); test: Inhibition of DYRK1a
[14] = Inhibition of diacylglycerol kinase in intact platelets
KM12 = test: Inhibition of human KM12 cells; type: functional
MV4-11 = test: Antiproliferative activity against human MV4-11 cells; type: functional
PBMC [15] = test: Inhibition of IL1 release in human PBMC; type: functional, cell-based
Blood = test: Inhibition of TNFalpha release in human whole blood; type: functional, tissue-based
[16] = Inhibition of TNFalpha release in human peripheral blood mononuclear cells; type: functional
[17] = Inhibition of Cdk2/cyclin B
[18] = Inhibition of adhesion kinase in human T cells; type: cell-based; conditions: t-cell
Jurkat = test: Inhibition of serum-induced proliferation in human Jurkat cells; type: functional, cell-based
[19] = target: Receptor-type tyrosine-protein kinase FLT3 (Homo sapiens, UniProt P36888); test: Inhibition of wild type FLT3
[20] = target: RAC-alpha serine/threonine-protein kinase (Homo sapiens, UniProt P31749); test: Inhibition of AKT
[21] = target: T2, Tyrosine-protein kinase Lck (Homo sapiens, UniProt P06239); test: Inhibition of p56lck autophosphorylation
T2 sequence (P06239 whole entry): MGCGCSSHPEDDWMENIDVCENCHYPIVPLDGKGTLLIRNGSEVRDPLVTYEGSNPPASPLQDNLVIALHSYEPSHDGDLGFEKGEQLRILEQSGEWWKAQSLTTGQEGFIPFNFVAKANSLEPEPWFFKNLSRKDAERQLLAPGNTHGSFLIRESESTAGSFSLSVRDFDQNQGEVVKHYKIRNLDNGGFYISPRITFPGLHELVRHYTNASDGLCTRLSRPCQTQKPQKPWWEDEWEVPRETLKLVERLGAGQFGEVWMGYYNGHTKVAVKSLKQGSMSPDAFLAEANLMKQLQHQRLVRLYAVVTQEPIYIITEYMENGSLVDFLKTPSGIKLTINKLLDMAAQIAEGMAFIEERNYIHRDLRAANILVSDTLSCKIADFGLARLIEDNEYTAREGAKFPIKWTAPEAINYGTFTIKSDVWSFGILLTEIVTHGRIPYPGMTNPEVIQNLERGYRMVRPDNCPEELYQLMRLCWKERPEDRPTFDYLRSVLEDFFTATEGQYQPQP

[22] = Growth inhibition of v-ras transformed human bronchial cells; type: functional
[23] = Inhibition of IGF1
[24] = target: T1, Epidermal growth factor receptor; test: Inhibition of EGF
[25] = target: Platelet-derived growth factor receptor (Homo sapiens, UniProt P09619+P16234); test: Inhibition of PDGF; type: protein-complex assay
MCF7 = test: Cytotoxicity against human MCF7 cells; type: functional, cell-based
[26] = target: Epidermal growth factor receptor (Homo sapiens, UniProt P00533, L858R); test: Inhibition of EGFR L858R mutant; type: protein assay
[27] = target: Receptor tyrosine-protein kinase erbB-4 (Homo sapiens, UniProt Q15303); test: Inhibition of erbB4/Her4
[28] = target: Epidermal growth factor receptor (Homo sapiens, UniProt P00533, L861Q); test: Inhibition of EGFR L861Q mutant; type: protein assay
[29] = target: Inhibitor of nuclear factor kappa-B kinase subunit alpha (Homo sapiens, UniProt O15111); test: Inhibition of IKK1
[30] = target: Serine/threonine-protein kinase ATR (Homo sapiens, UniProt Q13535); test: Inhibition of ATR
[31] = target: T2, Tyrosine-protein kinase Lck
[32] = Inhibition of P60cSrc
[33] = target: Casein kinase I isoform alpha (Homo sapiens, UniProt P48729); test: Inhibition of CK1a1
Casein kinase I isoform alpha, sequence (P48729 whole entry, canonical isoform): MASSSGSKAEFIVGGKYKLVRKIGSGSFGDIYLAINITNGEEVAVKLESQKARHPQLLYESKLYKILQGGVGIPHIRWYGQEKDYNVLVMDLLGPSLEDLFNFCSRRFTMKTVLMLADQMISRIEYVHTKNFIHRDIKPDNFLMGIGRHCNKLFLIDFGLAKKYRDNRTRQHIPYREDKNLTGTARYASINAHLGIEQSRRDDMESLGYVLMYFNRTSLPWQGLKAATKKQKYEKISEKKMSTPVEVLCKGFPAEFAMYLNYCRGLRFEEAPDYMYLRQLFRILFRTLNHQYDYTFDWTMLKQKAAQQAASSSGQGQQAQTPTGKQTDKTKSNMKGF

[34] = target: Tyrosine-protein kinase Fyn (Homo sapiens, UniProt P06241); test: Inhibition of p55fyn
Transcription factor Jun = Transcription factor Jun (Homo sapiens, UniProt P05412); test: Inhibition of AP1 activity
Transcription factor Jun, sequence (P05412 whole entry): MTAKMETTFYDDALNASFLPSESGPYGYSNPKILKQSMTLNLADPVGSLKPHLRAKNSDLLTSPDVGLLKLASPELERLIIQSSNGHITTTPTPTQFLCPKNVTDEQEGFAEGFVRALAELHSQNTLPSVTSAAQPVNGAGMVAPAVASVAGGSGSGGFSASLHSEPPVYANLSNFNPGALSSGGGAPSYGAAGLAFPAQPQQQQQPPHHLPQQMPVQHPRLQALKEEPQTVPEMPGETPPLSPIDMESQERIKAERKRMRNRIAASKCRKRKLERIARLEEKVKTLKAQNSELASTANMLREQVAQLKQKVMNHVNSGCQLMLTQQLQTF

[35] = target: Tyrosine-protein kinase Lyn (Homo sapiens, UniProt P07948); test: Inhibition of Lyn kinase
[36] = target: Tyrosine-protein kinase Yes (Homo sapiens, UniProt P07947); test: Inhibition of Yes kinase
Tyrosine-protein kinase Yes, sequence (P07947 whole entry): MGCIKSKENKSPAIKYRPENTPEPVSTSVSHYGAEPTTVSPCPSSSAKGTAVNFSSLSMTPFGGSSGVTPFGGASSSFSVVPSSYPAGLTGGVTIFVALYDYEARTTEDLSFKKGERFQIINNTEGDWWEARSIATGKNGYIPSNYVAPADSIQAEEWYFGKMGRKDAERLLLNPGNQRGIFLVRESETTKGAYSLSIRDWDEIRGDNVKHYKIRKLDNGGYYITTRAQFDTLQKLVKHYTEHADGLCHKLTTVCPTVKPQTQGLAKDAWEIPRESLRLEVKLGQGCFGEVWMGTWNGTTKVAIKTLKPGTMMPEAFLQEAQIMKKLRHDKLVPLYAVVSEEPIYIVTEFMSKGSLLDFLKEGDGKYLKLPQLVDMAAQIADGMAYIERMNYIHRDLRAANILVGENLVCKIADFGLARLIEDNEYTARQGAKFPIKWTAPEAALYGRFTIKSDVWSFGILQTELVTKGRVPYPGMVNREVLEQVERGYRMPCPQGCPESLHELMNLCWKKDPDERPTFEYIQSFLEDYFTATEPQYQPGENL

[37] = target: Protein kinase C gamma type (Homo sapiens, UniProt P05129); test: Inhibition of PKCgamma
[38] = target: T3, Serine/threonine-protein kinase Chk1 (Homo sapiens, UniProt O14757); test: Inhibition of Chk1 mediated phosphorylation of cdc25C
T3 sequence (O14757 whole entry): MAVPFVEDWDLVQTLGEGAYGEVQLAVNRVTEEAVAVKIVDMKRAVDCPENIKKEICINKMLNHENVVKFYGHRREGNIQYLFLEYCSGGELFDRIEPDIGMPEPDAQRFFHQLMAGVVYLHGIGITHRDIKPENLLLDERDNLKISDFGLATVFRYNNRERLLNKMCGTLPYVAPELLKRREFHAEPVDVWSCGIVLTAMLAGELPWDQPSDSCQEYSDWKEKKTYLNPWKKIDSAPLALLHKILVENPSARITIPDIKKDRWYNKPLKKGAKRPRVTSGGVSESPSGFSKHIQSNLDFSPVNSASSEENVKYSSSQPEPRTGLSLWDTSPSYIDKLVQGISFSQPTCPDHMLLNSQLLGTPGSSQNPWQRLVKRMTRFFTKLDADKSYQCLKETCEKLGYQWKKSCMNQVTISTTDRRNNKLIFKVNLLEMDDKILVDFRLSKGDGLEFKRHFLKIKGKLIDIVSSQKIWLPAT

[39] = Inhibition of phosphorylase kinase
Aurora kinase A = Aurora kinase A (Homo sapiens, UniProt O14965); test: Inhibition of Aurora kinase A
[40] = Inhibition of Aurora kinase B
[41] = target: Platelet-derived growth factor receptor alpha (Homo sapiens, UniProt P16234); test: Inhibition of PDGFRalpha
[42] = target: Protein kinase C zeta type (Homo sapiens, UniProt Q05513); test: Inhibition of PKCzeta
Protein kinase C zeta type, sequence (Q05513 whole entry): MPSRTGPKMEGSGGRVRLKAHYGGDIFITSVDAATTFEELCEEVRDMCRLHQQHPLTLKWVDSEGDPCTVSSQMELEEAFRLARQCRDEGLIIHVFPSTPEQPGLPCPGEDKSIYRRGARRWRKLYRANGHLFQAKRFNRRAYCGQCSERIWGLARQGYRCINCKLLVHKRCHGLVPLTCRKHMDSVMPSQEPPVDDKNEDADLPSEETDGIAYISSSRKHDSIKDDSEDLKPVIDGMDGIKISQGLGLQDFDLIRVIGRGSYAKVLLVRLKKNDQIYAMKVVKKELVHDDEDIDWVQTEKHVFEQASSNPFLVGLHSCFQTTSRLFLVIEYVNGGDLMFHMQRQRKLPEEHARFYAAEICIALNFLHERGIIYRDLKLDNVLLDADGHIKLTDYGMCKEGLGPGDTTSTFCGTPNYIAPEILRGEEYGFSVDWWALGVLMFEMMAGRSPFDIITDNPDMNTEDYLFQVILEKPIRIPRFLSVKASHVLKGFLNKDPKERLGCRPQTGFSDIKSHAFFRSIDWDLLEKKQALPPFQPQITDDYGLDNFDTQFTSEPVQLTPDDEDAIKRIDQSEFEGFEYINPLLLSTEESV

[43] = target: Dual specificity mitogen-activated protein kinase kinase 1 (Homo sapiens, UniProt Q02750)
Dual specificity mitogen-activated protein kinase kinase 1, sequence (Q02750 whole entry): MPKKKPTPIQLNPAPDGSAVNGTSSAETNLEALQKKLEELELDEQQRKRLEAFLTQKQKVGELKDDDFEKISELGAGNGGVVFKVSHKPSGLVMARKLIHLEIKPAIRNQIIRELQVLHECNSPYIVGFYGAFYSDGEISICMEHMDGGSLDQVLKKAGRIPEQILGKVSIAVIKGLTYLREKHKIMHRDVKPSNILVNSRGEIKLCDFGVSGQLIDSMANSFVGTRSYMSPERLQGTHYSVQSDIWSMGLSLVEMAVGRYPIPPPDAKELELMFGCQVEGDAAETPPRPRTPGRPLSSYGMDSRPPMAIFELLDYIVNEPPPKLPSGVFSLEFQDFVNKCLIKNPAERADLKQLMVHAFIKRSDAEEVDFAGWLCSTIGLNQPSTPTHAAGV

T1 sequence (P00533 whole entry): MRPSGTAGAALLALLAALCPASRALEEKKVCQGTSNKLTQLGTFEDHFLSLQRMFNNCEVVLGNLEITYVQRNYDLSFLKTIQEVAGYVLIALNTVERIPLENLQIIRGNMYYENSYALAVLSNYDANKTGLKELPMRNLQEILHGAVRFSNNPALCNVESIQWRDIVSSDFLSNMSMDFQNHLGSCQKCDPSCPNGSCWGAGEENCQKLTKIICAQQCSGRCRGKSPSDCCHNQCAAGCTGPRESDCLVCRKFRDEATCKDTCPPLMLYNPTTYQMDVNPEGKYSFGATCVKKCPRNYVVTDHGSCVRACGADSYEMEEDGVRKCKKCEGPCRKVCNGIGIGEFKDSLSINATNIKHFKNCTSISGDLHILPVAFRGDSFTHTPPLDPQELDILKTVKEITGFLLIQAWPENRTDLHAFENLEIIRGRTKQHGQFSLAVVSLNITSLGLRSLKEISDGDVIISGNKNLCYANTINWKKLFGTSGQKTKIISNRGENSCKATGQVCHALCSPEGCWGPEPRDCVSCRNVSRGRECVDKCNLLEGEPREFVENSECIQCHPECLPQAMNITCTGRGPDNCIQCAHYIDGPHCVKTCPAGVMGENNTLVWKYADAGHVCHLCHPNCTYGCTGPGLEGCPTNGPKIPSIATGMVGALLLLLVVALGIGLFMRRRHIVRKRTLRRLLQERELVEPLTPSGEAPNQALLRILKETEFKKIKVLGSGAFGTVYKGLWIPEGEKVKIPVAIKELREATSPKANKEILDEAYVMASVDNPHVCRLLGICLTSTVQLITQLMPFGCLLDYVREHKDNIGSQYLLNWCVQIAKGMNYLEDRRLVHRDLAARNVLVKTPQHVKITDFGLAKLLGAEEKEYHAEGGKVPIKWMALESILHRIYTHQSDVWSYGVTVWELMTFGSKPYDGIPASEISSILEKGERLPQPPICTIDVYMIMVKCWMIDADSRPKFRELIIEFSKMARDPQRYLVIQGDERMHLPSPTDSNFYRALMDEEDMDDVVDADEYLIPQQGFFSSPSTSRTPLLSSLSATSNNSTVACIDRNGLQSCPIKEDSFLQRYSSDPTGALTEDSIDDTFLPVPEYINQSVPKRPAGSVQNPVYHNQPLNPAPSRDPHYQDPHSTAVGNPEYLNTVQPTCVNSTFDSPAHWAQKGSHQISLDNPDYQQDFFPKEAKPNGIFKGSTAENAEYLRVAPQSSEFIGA

O=C1Nc2ccccc2/C1=C/c1cnc[nH]1
inhibition [1]: 54%

Nc1cccc(-c2cc3c(Oc4cccc(O)c4)ncnc3[nH]2)c1
Activity [2]: 50% | Activity (P19): 30%

O=C1c2ccccc2-[n+]2ccc3c([nH]c4ccccc43)c21 [FASCAPLYSIN CHLORIDE]
IC50 [3]: 3.4 µM

CSc1nc(-c2ccc(F)cc2)c(-c2ccnc(NC(C)c3ccccc3)c2)[nH]1 (racemic)
IC50 (PBMC [4]): 0.16 µM

N#CCCc1ccc2c(c1)-c1[nH]c3ccc([N+](=O)[O-])cc3c1CC(=O)N2 [ALSTERPAULLONE 2]
IC50 [5]: 1 µM

N=C(N)NCCNS(=O)(=O)c1cccc2cnccc12
Ki [6]: 150 µM

CCOc1ccc(/C=C2/SC(=O)N(CCN)C2=O)cc1 [HIAZOLIDINEDIONE1]
IC50 (HeLa): ≤ 25 µM

CCN1/C(=C/C(C)=O)Sc2ccc(OC)cc21
IC50 [7]: 0.015 µM

NC(=O)c1ccc2[nH]c(-c3ccc(Oc4ccc(Cl)cc4)cc3)nc2c1
EC50 (T-cell): 7.6 µM

CN(C)C[C@@H]1CCn2cc(c3ccccc32)C2=C(C(=O)NC2=O)c2cn(c3ccccc23)CCO1 [RUBOXISTAURIN]
Activity [8]: Active

Cn1cnc2c(NCc3ccccc3)nc(NCCO)nc21 [OLOMOUCINE]
IC50 [9]: > 1000 µM | IC50 (CDK6/cyclin D3): > 250 µM

NCCNc1ncc(C(N)=O)c(Nc2cccc(C(F)(F)F)c2)n1
IC50 [10]: 15.5 µM | IC50 [11]: 0.041 µM

Cc1nc(N)sc1-c1ccnc(Nc2cccc([N+](=O)[O-])c2)n1
Ki [12]: 0.004 µM

NS(=O)(=O)c1ccc(Nc2nc(OCC3CCCCC3)c3nc[nH]c3n2)cc1
IC50 [13]: 0.9 µM

O=c1c2ccccc2[nH]c(=S)n1CCN1CCC(=C(c2ccc(F)cc2)c2ccc(F)cc2)CC1 [DIACYLGLYCEROL KINASE INHIBITOR II]
IC50 [14]: 0.12 µM

CC(C)[C@H](CO)Nc1nc(Nc2cc(N)cc(Cl)c2)c2ncn(C(C)C)c2n1 [AMINOPURVALANOL]
GI50 (KM12): 0.03 µM

COc1ccc(Cl)cc1NC(=O)Nc1cc(C)nc2ccccc12
Activity (MV4-11): 15 µM

C[S+]([O-])c1ccc(CSc2nc(-c3ccc(F)cc3)c(-c3ccncc3)[nH]2)cc1 (centres undefined)
IC50 (PBMC [15]): 0.88 µM | IC50 (Blood): 3.65 µM | IC50 [16]: 3.65 µM

CC(=O)O/N=C1/C(=C2/C(=O)Nc3cc(Br)ccc32)Nc2ccccc21 [6-BROMOINDIRUBIN-3'-ACETOXIME]
IC50 [17]: 63 µM

CC(C)(C)n1nc(-c2ccc(Cl)cc2)c2c(N)ncnc21
IC50 [18]: 0.6 µM

CN1CCc2[nH]c(=S)c(C#N)c(-c3cccs3)c2C1
IC50 (Jurkat): < 8 µM

c1ccc(-c2n[nH]c3c2oc2ccccc23)cc1
IC50 [19]: 0.3 µM | IC50 [20]: ≥ 10 µM

Cc1c2ccncc2c(C)c2c1[nH]c1ccccc12 [ELLIPTECINE]
IC50 [21]: 18.5 µM | IC50 [22]: 15 µM

CCOC(=O)c1c(C)[nH]c(/C=C2\C(=O)Nc3ccccc32)c1C
IC50 [23]: > 100 µM | IC50 [24]: > 100 µM | IC50 [25]: > 100 µM

NC1=N/C(=C2/CCNC(=O)c3[nH]ccc32)C(=O)N1 [DEBROMOHYMENIALDISINE]
IC50 (MCF7): 25 µM

O=C(Nc1cccc(Nc2cc(Nc3cccc(C(F)(F)F)c3)ncn2)c1)C1CC1
IC50 [26]: 0.063 µM | IC50 [27]: 7.64 µM | IC50 [28]: 0.004 µM

COc1cc(O)c2c(c1)oc(=O)c1c3cc(O)c(O)cc3oc21 [WEDELOLACTONE]
IC50 [29]: > 10 µM

O=c1cc(N2CCOCC2)oc2c1ccc1ccccc12
IC50 [30]: > 100 µM

O=C(Nc1cccc(Nc2nccc(Nc3cccc(C(F)(F)F)c3)n2)c1)C1CC1 [ANILINOPYRIMIDINE1]
IC50 [31]: 0.131 µM

O=C(O)c1cc(N(Cc2ccccc2O)Cc2cc(O)ccc2O)ccc1O [LAVENDUSTIN A]
IC50 [32]: 0.5 µM

COc1cc(OC)c(/C=C2\C(=O)Nc3ccccc32)c(OC)c1
IC50 [33]: 11 µM | IC50 [34]: > 100 µM

N#C/C(=C(/N)Sc1ccc(N)cc1)c1ccccc1C(F)(F)F
IC50 (Transcription factor Jun): 2.03 µM

CN(C)S(=O)(=O)c1ccc2c(c1)/C(=C/c1cc3c([nH]1)CCCC3)C(=O)N2
IC50 [35]: 0.13 µM | IC50 [36]: 0.02 µM

O=C1NC(=O)C(c2cn(CCCn3ccnc3)c3ccccc23)=C1Nc1ccccc1
IC50 [37]: > 1 µM

O=C1NC(=O)c2c1c1c3ccccc3n3c1c1c2c2ccccc2n1C1CCC3O1
IC50 [38]: 0.015 µM

Cl.Cn1cc(C2=C(c3ccc4cc5n(c4c3)CCC(CN)C5)C(=O)NC2=O)c2ccccc21 (centres undefined)
IC50 [39]: 1.3 µM

COc1cc2ncnc(Nc3ccc(NC(=O)c4ccccc4)cc3)c2cc1OC [ANILINOQUINAZOLINE1]
IC50 (Aurora kinase A): 0.31 µM | IC50 [40]: 0.24 µM

CCCNC(=O)Nc1ccc(Oc2ncnc3cc(OC)c(OC)cc23)cc1Cl [KRN-633]
IC50 [41]: 0.97 µM

CN(C)CCCn1cc(C2=C(c3c[nH]c4ccccc34)C(=O)NC2=O)c2ccccc21 [GF-109203]
IC50 [42]: 5.8 µM

O=C1C(Cl)=C(N2C(=O)CCC2=O)C(=O)c2ccccc21
IC50 [43]: 0.38 µM
